Results on 85 compounds are retold here after ChEMBL document CHEMBL1157539, “Thousands of chemical starting points for antimalarial lead identification” (Nature, 2010).

SMILES strings stand for the structures.

The subject of the assay is Plasmodium falciparum. Put plainly: GSK_TCMDC: Inhibition of Plasmodium falciparum 3D7 in whole erythrocytes, using parasite LDH activity as an index of growth. The conditions noted are these: Plasmodium falciparum, 3D7. Type of assay: functional, organism-based.

As to `CC(C)CNCc1ccc(-c2ccc(CN(CCCN3CCN(C)CC3)C(=O)/C=C/c3ccccc3)cc2)cc1`, the XC50 amounted to 917 nM.
The value for `Nc1nc(N)c2c(ccc3c2ncn3Cc2ccccc2)n1` was 93.4 nM; that for `CC[C@@]1(O)C(=O)OCc2c1cc1n(c2=O)Cc2c-1nc1cc3c(cc1c2CN1CCOCC1)OCO3` was 965 nM.
`CCCC[C@H](NC(=O)O[C@H](COc1ccc(OCc2ccccc2)cc1)C(C)(C)C)C(=O)C(=O)Nc1cc[nH]n1` showed an XC50 of 991 nM.
Then `COc1ccc2nccc([C@@H](O)CN3CCC(NCc4nc5c(F)cccc5[nH]4)CC3)c2c1`, with 467 nM; and `N=C(N)NN=Cc1ccccc1OCc1ccccc1Cl`, with 718 nM.
Compound `CCCNC[C@@H](O)[C@H](Cc1ccccc1)NC(=O)c1cc(NCC)cc(N2CCCC2=O)c1` showed an XC50 of 760 nM.
Consider `Cc1cc(Cl)ccc1NC(=O)Nc1ccc2nccc(N3CCN(C)CC3)c2c1`, for which the XC50 amounted to 394 nM.
For `c1cc2c3c(cccc3c1)NC(CCCCCCCCC1=Nc3cccc4cccc(c34)N1)=N2`, the XC50 is 826 nM.
For `Cc1ccc(NC(=O)Nc2ccc(I)c(OCCN(C)C)c2)cc1Cl`, the XC50 worked out at 564 nM.
Compound `COc1cc(NCCCNC(=O)c2cn(Cc3ccccc3)c3ccccc23)nc2ccccc12` came in with an XC50 of 868 nM.
For the compound `COc1cccc(C(=O)OC2=C3CCC(=O)C3(C)CCC2=O)c1` (stereo not given), the XC50 came out at 77.9 nM.
Consider `O=S(=O)(NC1CCC(CN2CCC(c3c[nH]c4ccccc34)CC2)CC1)c1ccc(Cl)c(Cl)c1` (stereo not given), for which the XC50 amounted to 817 nM.
Then `C[C@@H](Oc1cc(-n2cnc3ccc(NC(=O)CCN4CCCCC4)cc32)sc1C(N)=O)c1ccccc1Cl`, with 991 nM; and `CCc1nc2c(cnn2CC)c(NC2CCOCC2)c1CNC(=O)c1ccoc1C`, with 886 nM; and `CN1N=C2c3ccccc3CCC2C1c1ccc(C#N)cc1` (stereo not given), with 655 nM.
Then `O=C(/C=C/c1ccc(Cl)c(Cl)c1)NCCCCCCN1CCN(C(=O)Nc2ccc(C(F)(F)F)cc2)CC1`, with 397 nM.
For the compound `CC(C)NCc1cc(Nc2ccnc3cc(Cl)ccc23)ccc1O`, the XC50 is 25 nM.
Then `CC1CCCCN1CCCNc1ncc2c(-c3ccc(NC(=O)Nc4cc(C(F)(F)F)ccc4F)c(F)c3)nn(C)c2n1` (stereo not given), with 263 nM.
As for `CC(C)c1ccc(CN2CCC(NC(=O)c3ccc(-c4cccc(F)c4)s3)CC2)cc1`, the XC50 was determined as 1330 nM.
`O=C(NC1CCN(CCN2CCC(c3c[nH]c4ccccc34)CC2)CC1)c1ccc(-c2ccc(C(F)(F)F)cc2)cc1` registered an XC50 of 205 nM.
`Brc1cnc(NC2=NCCN2)c(Br)c1` came in with an XC50 of 335 nM.
Take `O=C(Nc1ccc(-c2nc3ccccc3[nH]2)cc1)c1ccc(S(=O)(=O)N2CCCCCC2)cc1`: the XC50 worked out at 411 nM.
In the case of `CC(Cc1ccc(SCCSc2ccccc2)cc1)NCC(O)c1cccc(Cl)c1` (stereo not given), the XC50 was found to be 367 nM.
In the case of `COc1ccc(Cn2ccc3c4c(N)nc(N)nc4ccc32)cc1`, the XC50 was 3.2 nM.
The compound `CCOc1cc(C(C)C)ccc1N1CCN(CCCCNC(=O)c2ccc(NC(=O)c3ccc(Cl)cc3)cc2)CC1` gave an XC50 of 416 nM.
The value for `COc1ccc2c(=O)ccn(CCN3CCC(NCc4ccc5c(n4)NC(=O)CS5)CC3)c2c1` was 233 nM.
As for `c1cc(CN2CCc3ccccc3CC2)cc(-c2c[nH]c3nc(NC4CCCC4)ncc23)c1`, the XC50 is 800 nM.
`COc1cc2cc(Cc3cnc(N)nc3N)ccc2c(OC)c1OC`: the XC50 amounted to 239 nM.
As for `COc1ccc(Cl)cc1-c1nc(C(=O)NCCN2CCCCC2)c(C(C)C)s1`, the XC50 was determined as 753 nM.
The value for `Cn1nc(-c2ccc(S(=O)(=O)N3CCC(CN4CCC(c5c[nH]c6ccccc56)CC4)CC3)s2)cc1C(F)(F)F` was 1090 nM.
As to `Cc1cc(CN2CCC(Nc3ncc(-c4ccsc4)c4nc(C(F)(F)F)ccc34)CC2)no1`, the XC50 came to 1100 nM.
As for `CC(C)(C)c1ccc(CN2CCC(NC(=O)c3cc(-c4cccc(C(F)(F)F)c4)cs3)C2)cc1` (stereo not given), the XC50 is 805 nM.
In turn, `COc1cccc(Nc2nc(C)cc(NCc3ccc(-n4ccnc4)cc3)n2)c1` gave an XC50 of 958 nM.
The value for `CC(=O)COc1c(C2CCN(CCCCNC(=O)c3ccc(-c4ccc(C(F)(F)F)cc4)cc3)CC2)ccc2c1CCCC2` was 784 nM; that for `COc1ccc2nccc([C@@H](O)CN3CCC(NCc4cc5ccccc5nn4)CC3)c2c1` was 1200 nM; that for `O=C(NC1CC1)c1ccc(Cn2c(SCc3cccc([N+](=O)[O-])c3)nc3ccccc3c2=O)cc1` was 764 nM.
The compound `CC(c1cccc(Nc2nccc(-c3c(-c4cccc(NC(=O)c5c(F)cccc5F)c4)nn4ccccc34)n2)c1)S(C)(=O)=O` (stereo not given) showed an XC50 of 57.5 nM.
In turn, `CCN1CCN(C(=O)NC(C(=O)N(C)Cc2ccc(-c3ccc(C(F)(F)F)cc3)cc2)c2cccs2)C(=O)C1=O` (stereo not given) returned an XC50 of 356 nM.
As for `COc1cccc(CCc2cccc(CNC(C)=O)c2)c1`, the XC50 is 1040 nM.
`COc1ccc(C(=O)NCc2ccccc2-c2ccc(C(C)(C)C)cc2)cc1O` registered an XC50 of 99.6 nM.
In turn, `NC(=O)c1cccc(C(=O)Nc2cccc(-c3cccc(-c4nc5ccccc5[nH]4)c3)c2)c1` gave an XC50 of 548 nM.
`O=C(Nc1ccccc1)Nc1ccc(-n2ccc(C(F)(F)F)n2)cc1` showed an XC50 of 632 nM.
Then `Cc1cccc2nc(-c3cccc(-c4ccc(NC(=O)CS(C)(=O)=O)cc4)c3)[nH]c12`, with 1000 nM.
The value for `CCCCN1CC[C@@H](CCC(O)c2ccnc3ccc(OCCC(C)C)cc23)[C@@H](CC)C1` (stereo not given in full) was 989 nM; that for `O=C(/C=C/c1ccc(Cl)c(Cl)c1)N1CCC(CN2CCC(c3c[nH]c4cc5c(cc34)OCO5)CC2)CC1` was 680 nM.
Compound `c1cc(CN2CCN(CCN3CCOCC3)CC2)cc(-c2csc(-c3nc4ccccc4[nH]3)c2)c1` returned an XC50 of 452 nM.
Compound `COc1cc(-c2nc(-c3ccccc3)c(-c3ccccc3)[nH]2)ccc1OCCN(C)C` had an XC50 of 303 nM.
`COc1ccccc1N1CCN(C(C(=O)NCc2cccc(F)c2)c2ccc(C)cc2)CC1` (stereo not given) gave an XC50 of 892 nM.
The compound `COc1ccc2nc(C)cc(N/N=C/c3ccc([N+](=O)[O-])o3)c2c1` had an XC50 of 698 nM.
`CC(=O)Oc1cc(C)ccc1C1CCN(CCCCNC(=O)c2ccc(-c3ccc(C(F)(F)F)cc3)cc2)CC1`: the XC50 stood at 646 nM.
The compound `COc1ccc2nc(-c3cccc(C)n3)nc(Nc3ccncc3)c2c1` returned an XC50 of 669 nM.
Regarding `CN(C)CCN(Cc1ccccc1)c1ccc([N+](=O)[O-])cc1C(F)(F)F`, the XC50 came out at 776 nM.
On to `CCc1c[nH]c2c(N3CCCS3(=O)=O)cc(C(=O)N[C@@H](Cc3ccccc3)[C@H](O)CNC3CCCCC3)cc12`, for which the XC50 came to 774 nM.
For `CCN(CCCNc1nc(=S)[nH]c2cc(OC)c(OC)cc12)c1ccccc1`, the XC50 is 721 nM.
`CCn1ccc2c(N3CCCC3=O)cc(C(=O)N[C@@H](Cc3ccccc3)[C@H](O)CNCc3cccc(OC)c3)cc21` displayed an XC50 of 588 nM.
In turn, `Nc1cc2c(C3CCN(CC4CCN(C(=O)/C=C/c5ccc(Cl)c(Cl)c5)CC4)CC3)c[nH]c2cn1` returned an XC50 of 975 nM.
`CCOC(=O)c1cc(Cl)cc(Cl)c1OCCCON1C(=N)N=C(N)NC1(C)C` came in with an XC50 of 3.2 nM.
On to `COc1cccc2cc(C(=O)N[C@@H](CC(C)C)C(=O)N[C@H](C=NN(C)C(=O)OC(C)(C)C)Cc3ccccc3)oc12`, for which the XC50 was 262 nM.
The value for `COc1ccc(Nc2ccnc3cc(-c4ccccn4)ccc23)cc1OC` was 31.8 nM.
Take `CCC(C)(C)c1ccc(OCCCC(=O)Nc2ccc(Cl)c([N+](=O)[O-])c2)c(C(C)(C)CC)c1`: the XC50 turned out to be 969 nM.
Then `CC1(C)NC(N)=NC(=N)N1OCCNCc1ccc(Cl)cc1`, with 160 nM.
Compound `CC(C)N(Cc1cnc2nc(N)nc(N)c2n1)c1ccc(Cl)c(Cl)c1` had an XC50 of 158 nM.
In the case of `Oc1ccc(CCNc2nc(NCCOc3ccccc3-c3ccccc3)nc(N3CCNCC3)n2)cc1`, the XC50 amounted to 1040 nM.
`COc1cc2nc(N3CCC(CNC(=O)c4cccc5cc[nH]c45)CC3)nc(N)c2cc1OC` registered an XC50 of 1580 nM.
Take `CCn1ccc2c3c(N)nc(N)nc3ccc21`: the XC50 amounted to 313 nM.
In the case of `Cc1cccc2nc(-c3cccc(-c4cccc(NC(=O)CNC(=O)c5ccc(O)cc5)c4)c3)[nH]c12`, the XC50 is 990 nM.
Compound `CCCCCCCN1C2CCC1CC(CCOc1ccnc3ccc(OC)cc13)C2` (stereo not given) gave an XC50 of 389 nM.
With `CCNc1cc(C(=O)N[C@@H](Cc2ccccc2)[C@H](O)CNC2CCC(C)(C)CC2)cc(N2CCCCS2(=O)=O)c1`, the XC50 was 647 nM.
`O=C(NC1CC1)c1cnc(N2CCC(Oc3ccc(Cl)cc3)CC2)c(Cl)c1` registered an XC50 of 1090 nM.
Then `Cc1ccc(OCC2CCN(c3ncc(C(=O)NCCCN4CCCC4=O)cc3Cl)CC2)cc1`, with 1260 nM.
Compound `O=c1c2c([nH]c3cc(Cl)ccc13)CCCC2` yielded an XC50 of 810 nM.
Compound `COc1cccc2cc(C(=O)N[C@@H](CC(C)C)C(=O)N[C@H](C=NNC(=O)OC(C)(C)C)CC(C)C)oc12` gave an XC50 of 905 nM.
Take `c1ccc2c(Nc3ccc(OCCOCCOc4ccc(Nc5c6ccccc6nc6ccccc56)cc4)cc3)c3ccccc3nc2c1`: the XC50 was determined as 284 nM.
Then `COc1ccc(NC(=O)CCNc2ccnc(NCCc3ccc(F)cc3)n2)cc1`, with 990 nM; and `CN(C)CCOc1ccc(-c2cc(-c3ccncc3)c(-c3ccc(Cl)c(O)c3)[nH]2)cc1`, with 224 nM.
Compound `CN1CCCC(CN2CCN(Cc3cccc(-c4cccc(-c5nc6ccccc6[nH]5)c4)c3)CC2)C1` (stereo not given) came in with an XC50 of 139 nM.
The compound `COc1nc2c(N3CCN(CCNCc4ccc5c(n4)NC(=O)CO5)CC3)ccnc2cc1F` had an XC50 of 758 nM.
In turn, `CC[C@@H]([C@@H](Cc1cc2ccccc2s1)C(=O)N[C@@H](CCCCNC(=O)OCc1ccccc1)C(=O)Nc1ccccn1)N(O)C=O` showed an XC50 of 227 nM.
For `CS(=O)(=O)Cc1ccc(Nc2ncc(Cl)c(Nc3cccnc3C(N)=O)n2)cc1`, the XC50 worked out at 868 nM.
Then `O=C(Nc1ccc2[nH]c(-c3ccc4nc(NC(=O)C5CCCCC5)sc4c3)nc2c1)C1CCCCC1`, with 612 nM; and `CN1CCc2cc(Br)c(O)cc2C1Cc1ccccc1Cl` (stereo not given), with 667 nM; and `Cc1cc(-c2ccc(NC(=O)Nc3ccc4nccc(N5CCN(C)CC5)c4c3)cc2C)cc(C)n1`, with 153 nM.
The value for `Brc1cccc(Nc2nccc(Nc3ccc(Oc4ccccc4)cc3)n2)c1` was 1010 nM; that for `Cc1n[nH]c2cc(Nc3ccnc(Nc4ccc(CN5CCOCC5)cc4)n3)ccc12` was 950 nM.
